Tests used:
pig urothelium = experiment: rAd-βgal gene transfer in chronically catheterized adult pig bladder; type: in vivo
Description: To simulate volumes expected for clinical investigation, the 7 mM Big CHAP (CALBIOCHEM®) formulation was tested in a chronically catheterized adult pig model in collaboration with SPRI Drug Safety and Metabolism. rAd-βgal (1×10^11 PN/ml) was formulated in VPBS or 7 mM Big CHAP (CALBIOCHEM®). A volume of 50 ml was injected via the catheter into the bladder of the conscious animals. The instilled material was retained for 2 hr. The animals were sacrificed 48 hr later, and a central section of the bladder was harvested and stained for β-galactosidase expression.

[1] = system: bladder, kidney and liver homogenates; experiment: ACNRB transgene expression by RT-PCR after intravesical administration; type: in vivo, mouse; details: ACNRB 4×10^10 PN/mL in 22% (v/v) ethanol or 3 mM Big CHAP versus VPBS, 48 hours
Description: After the virus was retained in the bladder for 45 minutes, the animals were permitted to recover and void. […] Following amplification (30 cycles) RT-PCR products were separated on a 10% polyacrylamide gel, stained with ethidium bromide, and photographed. […] Untreated samples and bladder samples without the reverse transcriptase (RT) provided controls for contaminating DNA.
The instilled material was retained in the bladder for approximately 45 minutes, and animals were permitted to recover from the procedure. Mice were sacrificed 1, 2, 3, 4, 5, 6, 7, and 14 days after administration (N=4/time) for analysis. Bladders, livers, and kidneys were harvested and snap frozen in liquid nitrogen for subsequent analysis.
After the virus was retained in the bladder for 45 minutes, the animals were permitted to recover. […] Transgene expression was determined using RT-PCR. Tissues were rinsed in RNAse free water, homogenized, digested in Tri-Reagent (Molecular Research Center), and total cellular RNA extracted. […] RT-PCR was performed in the Perkin Elmer 9600 GeneAmp PCR System. Cycling conditions were 10 min at 65° C., 8 min at 50° C., 5 min at 95° C. 32 cycles of PCR were performed, each cycle consisting of 30 sec at 94° C., 30 sec at 58° C., and 30 sec at 72° C. The 32nd cycle included a 10 min elongation step at 72° C. to ensure full extension of incomplete DNA fragments.

bladder epithelium [2] = experiment: rAd-βgal gene transfer to bladder epithelium in detergent formulations, Xgal staining score and gross pathology
Description: rAd-βgal was formulated in different detergents at their critical micellization concentration to evaluate efficiency of gene transfer to the bladder epithelium. Female rats (about 200 g b/w, Harlan Sprague Dawley) were anesthetized with isoflurane and received a single intravesical administration of rAd-βgal (1×10^11 PN/ml) in different detergent formulations (see Table I). Before instillation, bladders were flushed with PBS and then emptied. rAd-βgal was then instilled in a volume of 0.5 ml. The instilled solution was retained in the bladder for 45 minutes. The bladders were then flushed with PBS, and the animals were permitted to recover from the procedure. 48 hours after administration, the rats were sacrificed, the bladders harvested, and fixed in formalin. After fixation, the bladders were opened longitudinally so that the urothelium was exposed to the chromogen (Xgal), that is converted to a blue color, if reporter gene (β-galactosidase) expression is present. The luminal epithelial surface of the whole bladder was photographed an blue staining scored: + (minimal staining), ++ (moderate staining), +++ intense staining covering the whole bladder epithelial surface.
Briefly, in anaesthetized female rats rAd-βgal (1×10^11 PN/ml) was administered into the bladder via an intravesical catheter. rAd-βgal was formulated in different concentrations of Big CHAP (CALBIOCHEM®). A volume of 0.5 ml was injected and remained instilled in the bladder for 45 minutes. The animals were sacrificed 48 hours later, the bladder fixed in 4% formalin/glutaraldehyde, opened longitudinally, and the β-galactosidase enzyme activity measured using Xgal substrate. The intensity of blue staining correlates with the βgal-transgene expression.
Effects of higher recombinant adenovirus concentrations were also tested. Briefly, in anaesthetized female rats different concentrations of rAd-βgal, formulated in 7 mM Big CHAP (CALBIOCHEM®) were administered into the bladder via an intravesical catheter. The animals were sacrificed 48 hours later, the bladder fixed in 4% formalin/glutaraldehyde, opened longitudinally, and Xgal stained.

bladder tissue = experiment: Cystitis evaluation of formulations in mice, bladder histopathology; details: 80 μL intravesical, 7-day interval; 7 mM Big CHAP, 0.05 mM TRITON X-100 or 22% ethanol
Description: The formulations were administered intravesically in a volume of 80 μL, and animals were observed over a 7-day interval. After sacrifice, bladders were paraffin-embedded, sectioned, and stained with hematoxylin and eosin for pathologic evaluation.

bladder tumor tissue = experiment: Gene transfer to BBN-induced bladder tumors (transitional cell carcinoma model); type: in vivo, rat; details: rAd-βgal 1×10^11 PN/ml in 4 mM Big CHAP compared to VPBS, 48 hr
Description: Because initial investigations focused on animals with intact bladder epithelium, evaluated adenovirus mediated gene transfer in an animal model of transitional cell carcinoma was also studied. Tumors were induced in male Fisher rats by addition of 0.05% BBN in the drinking water for six months. rAd-βgal (1×10^11 PN/ml), formulated in 4 mM Big CHAP (CALBIOCHEM®) or VPBS was instilled into the bladder for 45 minutes by direct injection. β-gal expression was evaluated 48 hr after treatment. Consistent with earlier experiments using non-tumor bearing animals, gene transfer to tumor tissue was improved with the Big CHAP (CALBIOCHEM®) formulation compared to the VPBS formulation (FIG. 10).
Gene transfer of rAd carrying the p53 gene (rAd-p53) (Wills et al., Human Gene Therapy 5:1079-1088 (1994)) was also tested in this animal model of bladder cancer. Briefly, bladder tumors were induced in female Fisher rates (Charles River) by addition of 0.05% BBN (N-butyl-N-N(4-hydroxybutyl)nitrosamine) in the drinking water for three months. rAd-p53 (1×10^11 PN/ml) was formulated in 7 mM Big CHAP (CALBIOCHEM®). Under isoflurane anesthesia a catheter (24G) was inserted into the bladder for administration. rAd-p53 was instilled into the bladder for 45 minutes. The animals were then allowed to recover from anesthesia. […] No staining was detected in tumor tissue from untreated animals.

bladder epithelium [3] = experiment: Effect of Big CHAP sources, purified Big CHAP and impurities on rAd-βgal gene transfer to bladder epithelium; type: in vivo, rat; details: Big CHAP at 6 mg/ml
Description: Alternate commercial sources of Big CHAP (BC) were tested for the ability to enhance rAd (recombinant adenovirus) mediated gene transfer and expression, essentially according to the method described above in Example 8.
The results are depicted in FIG. 17.
rAd-βgal was formulated in 30 mg/ml of the column chromatography purified material of both BCs and gene transfer to the bladder epithelium tested as described above.
Three impurities of BC (CALBIOCHEM®) were detected by TLC (FIG. 15) and isolated by column chromatography for gene transfer studies. Impurity I and a mixture of impurity II and impurity III were diluted in VPBS (0.6 mg/ml or 6 mg/ml) to test their efficiency in improving rAd mediated gene transfer to the bladder epithelium. […] Positive control formulation (BC, CALBIOCHEM®, upper panel, left), and the negative control formulations (BC—CALBIOCHEM®, column chromatography purified and BC—Sigma) were used at a concentration of 6 mg/ml (upper panel, right).
In this experiment, 10 mg/ml of BC (Sigma, FIG. 20 upper middle panel) was reconstituted with Impurity III (upper right panel), impurity II (lower left panel), or synthesized analog of impurity III (lower right panel). rAd-βgal, 1×10^11 PN/ml, was prepared in the spiked formulations and administered intravesically as described above.
Calbiochem Big CHAP was fractionated by column chromatography to obtain essentially pure impurities “1”, “2”, and “3” for biological testing as well as structural analysis.

## C[C@H](CCC(=O)N(CCCNC(=O)[C@H](O)[C@@H](O)[C@H](O)[C@H](O)CO)CCCNC(=O)[C@H](O)[C@@H](O)[C@H](O)[C@H](O)CO)[C@H]1CC[C@H]2[C@@H]3[C@H](O)C[C@@H]4C[C@H](O)CC[C@]4(C)[C@H]3C[C@H](O)[C@]12C [Big CHAP (CALBIOCHEM®), N,N,bis-(3-D-gluconamidopropyl)-cholamide]
Pig urothelium; 7 mM Big CHAP
  transduction of epithelial layers (histologic evaluation): transduction of several epithelial layers
Pig urothelium; rAd-βgal 1×10^11 PN/ml, 7 mM Big CHAP compared to VPBS, 50 ml, 2 hr, 48 hr
  intensity of gene expression (β-galactosidase): An increase in the intensity of gene expression
[1]
  ACNRB expression in bladder (RT-PCR): enhanced expression
Bladder epithelium [2]; 17.5 mM Big CHAP
  cystitis: induced cystitis in some of the animals tested
  gene transfer or expression: did not notably improve gene transfer or expression
Bladder epithelium [2]; 3.5-7 mM Big CHAP
  gene transfer: significantly improved gene transfer
Bladder epithelium [2]; Big CHAP formulation that enhanced gene transfer
  cystitis: minimal cystitis
Bladder epithelium [2]; detergents at their critical micellization concentration
  gene transfer to the bladder epithelium (Table I): enhanced gene transfer dramatically
Bladder epithelium [2]; rAd-βgal 1×10^11 PN/ml, different concentrations of Big CHAP
  gene transfer to the epithelium, dependence on Big CHAP concentration: concentration-dependent increase of gene transfer
Bladder epithelium [2]; rat, in vivo
  β-galactosidase expression, 3.5 mM compared with 7 mM formulation: similar
Bladder tissue
  macrophage infiltration into the bladder tissue / cystitis: Only a slight macrophage infiltration
Bladder tumor tissue
  gene transfer to tumor tissue: improved
Bladder epithelium [3]; listed as BC (CALBIOCHEM®)
  rAd mediated gene transfer and expression: did substantially enhance gene transfer and expression
Bladder epithelium [3]; listed as Big CHAP from CALBIOCHEM®
  rAd mediated gene transfer and expression: greater enhancement of gene transfer
